This passage reports Kd results from patent US20250121076A1, “POLYPEPTIDE DRUG CONJUGATE HAVING NOVEL STRUCTURE AND APPLICATION THEREOF” (MEDSHINE DISCOVERY INC., priority 2021, published 2025).

In the test the target is T1, Human EphA2 (Homo sapiens, UniProt P29317).
T1 construct: purchased Sino Biological 13926-H08HD
Description: Binding capacity test to EphA2 protein (SPR, Biacore 8K). The procedure:
To detect the affinity of the compound to be tested to the target protein EphA2 using the SPR method.
• Biacore 8K (GE Healthcare). • 96-well Plate (Cat #650101, greiner bio-one) • CM5 chip (Cat #BR-1005-30, GE Healthcare) • Amine Coupling Kit (Cat #BR-1000-50, GE Healthcare) EDC NHS 1 M ethanolamine. • 10 mM sodium acetate pH 4.5 (Cat #BR-1003-50, GE Healthcare) • DMSO (Cat #D4540, Sigma) • P20 (Cat #BR-1000-54, GE Healthcare). • PBS (Cat #BR-1006-72, GE Healthcare). • EphA2 (Cat #13926-H08HD, Sino Biological)
In this experiment, the amino coupling method was used. The target protein EphA2 was directly immobilized on the CM5 chip using Biacore 8K. The compound to be tested as an analyte was then diluted to a required concentration gradient with a buffer (10 mM PBS, pH 7.4, 137 mM NaCl, 2.7 mM KCl, 5% DMSO, and 0.05% P20) for multi-cycle kinetic detection, in which each cycle is formed by 180 seconds of sample injection and 180 seconds of dissociation, and then the next cycle was performed, to obtain kinetic analysis data on the affinity of the target protein EphA2 to the compound to be tested. The final data were subjected to Kinetics fitting analysis based on a 1:1 model using Biacore Insight Evaluation Software (V 2.0.15.12933).
1) Preparation of the buffer: 10 mM PBS, pH 7.4, 137 mM NaCl, 2.7 mM KCl, 5% DMSO, and 0.05% P20.
2) Activation of the CM5 chip: The CM5 chip was activated with 400 mM EDC and 100 mM NHS at a flow rate of 10 μL/min for 420 seconds.
3) Coupling of the target protein: The target protein was diluted to 10 μg/mL with 10 mM sodium acetate (pH 4.5) and coupled at a flow rate of 10 μL/min for 284 s. The 1 #, 2 #, and 3 #channels on the chip were used in the experiment, and the coupling results were 1639.9RU, 1747.8RU, and 1702.2RU, respectively.
4) Blocking of the CM5 chip: The CM5 chip was blocked with 1 M ethanolamine at a flow rate of 10 μL/min for 420 seconds.
5) Analyte concentration: The compound to be tested was diluted with the buffer. The compound to be tested was diluted from 100 nM to 0.78 nM in a 2-fold gradient.
6) Sample injection analysis: Each concentration of the working solution of the compound to be tested corresponded to one cycle, with a flow rate of 30 μL/min for binding for 180 seconds and dissociating for 180 seconds. The last cycle was a 5% DMSO solvent correction cycle. 7) All results were subjected to kinetics fitting analysis based on a 1:1 model.
The experimental data of five effective concentrations of the compounds of the present invention were selected for Kinetics fitting analysis based on a 1:1 model using Biacore Insight Evaluation Software (V 2.0.15.12933).

pKd: −log10 of the molar value. Where a name gives a salt, the structure may show the parent alone. Read-outs that look alike come from different tables or passages of the source. Starred links: 1 amine or outer side, 2 acyl side, 3 side chain; linkers in the order of their positions; H or OH if unused. Positions of bridges follow the written chain, without caps; N, C: chain ends. Non-standard residues stand in square brackets, D forms with d. Residues, ends and D or L forms follow the SMILES beside them. Chains are numbered I, II in the order given. *: point of attachment. TATA = O=C(CC[*:1])N1CN(C(=O)CC[*:2])CN(C(=O)CC[*:3])C1; Dolaproine = CO[C@@H]([C@@H]1CCCN1)[C@@H](C)C(=O)O; Dil = CC[C@H](C)[C@H](NC)[C@@H](CC(=O)O)OC; X2 = O=C(CCCC(=O)[*:2])NCCC(=O)[*:1]; PABC = O=C(OCc1ccc(N[*:1])cc1)[*:2]; X1 = C[C@@H](N*)[C@@H](O)c1ccccc1; Hyp = O=C(O)[C@@H]1C[C@@H](O)CN1; hArg = N=C(N)NCCCC[C@H](N)C(=O)O; Cit = NC(=O)NCCC[C@H](N)C(=O)O; Pen = CC(C)(S)[C@H](N)C(=O)O; NMeV = CN[C@H](C(=O)O)C(C)C; hCys = N[C@@H](CCS)C(=O)O; Sar = CNCC(=O)O

As a reminder, the pKd is the negative decadic logarithm of the Kd, by convention in mol/L.

T1 sequence (P29317 24-534 limits assumed): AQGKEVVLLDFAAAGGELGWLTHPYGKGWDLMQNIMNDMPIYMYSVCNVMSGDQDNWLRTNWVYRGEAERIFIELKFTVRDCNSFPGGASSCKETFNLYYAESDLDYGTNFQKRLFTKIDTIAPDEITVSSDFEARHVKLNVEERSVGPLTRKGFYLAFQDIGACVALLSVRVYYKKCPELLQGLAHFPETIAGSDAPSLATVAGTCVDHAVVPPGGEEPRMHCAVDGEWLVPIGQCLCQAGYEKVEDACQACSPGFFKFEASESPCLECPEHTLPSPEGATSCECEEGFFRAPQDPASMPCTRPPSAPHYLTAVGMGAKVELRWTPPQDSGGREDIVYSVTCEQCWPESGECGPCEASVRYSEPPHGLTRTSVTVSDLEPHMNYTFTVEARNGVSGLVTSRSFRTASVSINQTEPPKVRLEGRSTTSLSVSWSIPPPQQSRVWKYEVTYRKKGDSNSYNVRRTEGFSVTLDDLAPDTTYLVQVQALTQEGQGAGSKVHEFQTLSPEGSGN

As to `CC[C@H](C)[C@@H]([C@@H](CC(=O)N1CCC[C@H]1[C@H](OC)[C@@H](C)C(=O)N[C@H](C)[C@@H](O)c1ccccc1)OC)N(C)C(=O)[C@@H](NC(=O)[C@H](C(C)C)N(C)C(=O)OCc1ccc(NC(=O)[C@H](CCCNC(N)=O)NC(=O)[C@@H](NC(=O)CCCC(=O)NCCC(=O)N(C)CC(=O)N(C)CC(=O)N(C)CC(=O)N(C)CC(=O)N(C)CC(=O)N(C)CC(=O)N(C)CC(=O)N(C)CC(=O)N(C)CC(=O)N(C)CC(=O)N[C@H]2CCCCNC(=O)C[C@@H](C(=O)N[C@@H]3C(=O)N4C[C@H](O)C[C@H]4C(=O)N[C@@H](CC(C)C)C(=O)N[C@@H](C(C)C)C(=O)N[C@@H](CC(N)=O)C(=O)N4CCC[C@H]4C(=O)N[C@@H](CC(C)C)C(=O)N[C@H]4CSCCC(=O)N5CN(CN(C5)C(=O)CCSC3(C)C)C(=O)CCSC[C@@H](C(N)=O)NC(=O)[C@H](CCCCNC(=N)N)NC(=O)[C@H](Cc3c[nH]c5ccccc35)NC(=O)[C@@H](CC(=O)O)NC(=O)[C@@H]3CCCN3C(=O)[C@H](Cc3c[nH]cn3)NC(=O)[C@H](CC(C)C)NC4=O)NC(=O)[C@H](CCCCNC(=N)N)NC2=O)C(C)C)cc1)C(C)C` [Acetate salt of PDC_7] (I: [Sar][Sar][Sar][Sar][Sar][Sar][Sar][Sar][Sar][Sar]K[hArg]D[Pen][Hyp]LVNPLCLHP[dD]W[hArg]C-NH2 / II: V[Cit][PABC][NMeV]V[Dil][Dolaproine]-X1; lactam I:11-I:13; linker I:14-I:21-I:28 via TATA; linker I:N-II:N via X2), the pKd is 8.08.
Compound `CC[C@H](C)[C@@H]([C@@H](CC(=O)N1CCC[C@H]1[C@H](OC)[C@@H](C)C(=O)N[C@H](C)[C@@H](O)c1ccccc1)OC)N(C)C(=O)[C@@H](NC(=O)[C@H](C(C)C)N(C)C(=O)OCc1ccc(NC(=O)[C@H](CCCNC(N)=O)NC(=O)[C@@H](NC(=O)CCCC(=O)NCCC(=O)N(C)CC(=O)N(C)CC(=O)N(C)CC(=O)N(C)CC(=O)N(C)CC(=O)N(C)CC(=O)N(C)CC(=O)N(C)CC(=O)N(C)CC(=O)N(C)CC(=O)N[C@H]2CCCCNC(=O)C[C@@H](C(=O)N[C@H]3CSCCC(=O)N4CN5CN(C4)C(=O)CCSC[C@H](NC(=O)[C@H](CC(C)C)NC(=O)[C@@H]4CCCN4C(=O)[C@H](CC(N)=O)NC(=O)[C@H](C(C)C)NC(=O)[C@H](CC(C)C)NC(=O)[C@@H]4C[C@@H](O)CN4C3=O)C(=O)N[C@@H](CC(C)C)C(=O)N[C@@H](Cc3c[nH]cn3)C(=O)N3CCC[C@H]3C(=O)N[C@H](CC(=O)O)C(=O)N[C@@H](Cc3c[nH]c4ccccc34)C(=O)N[C@@H](CCCCNC(=N)N)C(=O)N[C@H](C(N)=O)CSCCC5=O)NC(=O)[C@H](CCCCNC(=N)N)NC2=O)C(C)C)cc1)C(C)C` [Acetate salt of PDC_4] (I: [Sar][Sar][Sar][Sar][Sar][Sar][Sar][Sar][Sar][Sar]K[hArg]DC[Hyp]LVNPLCLHP[dD]W[hArg]C-NH2 / II: V[Cit][PABC][NMeV]V[Dil][Dolaproine]-X1; lactam I:11-I:13; linker I:14-I:21-I:28 via TATA; linker I:N-II:N via X2) gave a pKd of 7.88.
Take `CC[C@H](C)[C@@H]([C@@H](CC(=O)N1CCC[C@H]1[C@H](OC)[C@@H](C)C(=O)N[C@H](C)[C@@H](O)c1ccccc1)OC)N(C)C(=O)[C@@H](NC(=O)[C@H](C(C)C)N(C)C(=O)OCc1ccc(NC(=O)[C@H](CCCNC(N)=O)NC(=O)[C@@H](NC(=O)CCCC(=O)NCCC(=O)N(C)CC(=O)N(C)CC(=O)N(C)CC(=O)N(C)CC(=O)N(C)CC(=O)N(C)CC(=O)N(C)CC(=O)N(C)CC(=O)N(C)CC(=O)N(C)CC(=O)N[C@@H](C)C(=O)N[C@@H](CCCCNC(=N)N)C(=O)N[C@@H](CC(=O)O)C(=O)N[C@H]2CCSCCC(=O)N3CN4CN(C3)C(=O)CCSC[C@H](NC(=O)[C@H](CC(C)C)NC(=O)[C@@H]3CCCN3C(=O)[C@H](CC(N)=O)NC(=O)[C@H](C(C)C)NC(=O)[C@H](CC(C)C)NC(=O)[C@@H]3C[C@@H](O)CN3C2=O)C(=O)N[C@@H](CC(C)C)C(=O)N[C@@H](Cc2c[nH]cn2)C(=O)N2CCC[C@H]2C(=O)N[C@H](CC(=O)O)C(=O)N[C@@H](Cc2c[nH]c3ccccc23)C(=O)N[C@@H](CCCCNC(=N)N)C(=O)N[C@H](C(N)=O)CSCCC4=O)C(C)C)cc1)C(C)C` [Acetate salt of PDC_2, MMAE-PABC-Cit-Val-Glutaryl-β-Ala-Sar10-Ala-hArg-Asp-hCys-Hyp-Leu-Val-Asn-Pro-Leu-Cys-Leu-His-Pro-dAsp-Trp-hArg-Cys-NH2, TATA] (I: [Sar][Sar][Sar][Sar][Sar][Sar][Sar][Sar][Sar][Sar]A[hArg]D[hCys][Hyp]LVNPLCLHP[dD]W[hArg]C-NH2 / II: V[Cit][PABC][NMeV]V[Dil][Dolaproine]-X1; linker I:14-I:21-I:28 via TATA; linker I:N-II:N via X2): the pKd (read-out: Human EphA2 SPR kD, SPR, kinetics fit 1:1 model) is 7.48.
The compound `CC[C@H](C)[C@@H]([C@@H](CC(=O)N1CCC[C@H]1[C@H](OC)[C@@H](C)C(=O)N[C@H](C)[C@@H](O)c1ccccc1)OC)N(C)C(=O)[C@@H](NC(=O)[C@H](C(C)C)N(C)C(=O)OCc1ccc(NC(=O)[C@H](CCCNC(N)=O)NC(=O)[C@@H](NC(=O)CCCC(=O)NCCC(=O)N(C)CC(=O)N(C)CC(=O)N(C)CC(=O)N(C)CC(=O)N(C)CC(=O)N(C)CC(=O)N(C)CC(=O)N(C)CC(=O)N(C)CC(=O)N(C)CC(=O)N[C@H]2CCCCNC(=O)C[C@@H](C(=O)N[C@H]3CSCCC(=O)N4CN5CN(C4)C(=O)CCSC[C@H](NC(=O)[C@H](CC(C)C)NC(=O)[C@@H]4CCCN4C(=O)[C@H](CC(N)=O)NC(=O)[C@H](C(C)C)NC(=O)[C@H](CC(C)C)NC(=O)[C@@H]4C[C@@H](O)CN4C3=O)C(=O)N[C@@H](CC(C)C)C(=O)N[C@@H](Cc3c[nH]cn3)C(=O)N3CCC[C@H]3C(=O)N[C@H](CC(=O)O)C(=O)N[C@@H](Cc3c[nH]c4ccccc34)C(=O)N[C@@H](CCCCNC(=N)N)C(=O)N[C@H](C(N)=O)CCSCCC5=O)NC(=O)[C@H](CCCCNC(=N)N)NC2=O)C(C)C)cc1)C(C)C` [Acetate salt of PDC_5] (I: [Sar][Sar][Sar][Sar][Sar][Sar][Sar][Sar][Sar][Sar]K[hArg]DC[Hyp]LVNPLCLHP[dD]W[hArg][hCys]-NH2 / II: V[Cit][PABC][NMeV]V[Dil][Dolaproine]-X1; lactam I:11-I:13; linker I:14-I:21-I:28 via TATA; linker I:N-II:N via X2) had a pKd of 8.17.
The compound `CC[C@H](C)[C@@H]([C@@H](CC(=O)N1CCC[C@H]1[C@H](OC)[C@@H](C)C(=O)N[C@H](C)[C@@H](O)c1ccccc1)OC)N(C)C(=O)[C@@H](NC(=O)[C@H](C(C)C)N(C)C(=O)OCc1ccc(NC(=O)[C@H](CCCNC(N)=O)NC(=O)[C@@H](NC(=O)CCCC(=O)NCCC(=O)N(C)CC(=O)N(C)CC(=O)N(C)CC(=O)N(C)CC(=O)N(C)CC(=O)N(C)CC(=O)N(C)CC(=O)N(C)CC(=O)N(C)CC(=O)N(C)CC(=O)N[C@H]2CCCCNC(=O)C[C@@H](C(=O)N[C@H]3CCSCCC(=O)N4CN5CN(C4)C(=O)CCSC[C@H](NC(=O)[C@H](CC(C)C)NC(=O)[C@@H]4CCCN4C(=O)[C@H](CC(N)=O)NC(=O)[C@H](C(C)C)NC(=O)[C@H](CC(C)C)NC(=O)[C@@H]4C[C@@H](O)CN4C3=O)C(=O)N[C@@H](CC(C)C)C(=O)N[C@@H](Cc3c[nH]cn3)C(=O)N3CCC[C@H]3C(=O)N[C@H](CC(=O)O)C(=O)N[C@@H](Cc3c[nH]c4ccccc34)C(=O)N[C@@H](CCCCNC(=N)N)C(=O)N[C@H](C(N)=O)CSCCC5=O)NC(=O)[C@H](CCCCNC(=N)N)NC2=O)C(C)C)cc1)C(C)C` [Acetate salt of PDC_6] (I: [Sar][Sar][Sar][Sar][Sar][Sar][Sar][Sar][Sar][Sar]K[hArg]D[hCys][Hyp]LVNPLCLHP[dD]W[hArg]C-NH2 / II: V[Cit][PABC][NMeV]V[Dil][Dolaproine]-X1; lactam I:11-I:13; linker I:14-I:21-I:28 via TATA; linker I:N-II:N via X2) had a pKd of 8.25.
